The values that follow come from paper PMC4854315, “Discovery of a novel allosteric inhibitor-binding site in ERK5: comparison with the canonical kinase hinge ATP-binding site” (Acta Crystallographica. Section D, Structural Biology, 2016).

Common to all, as to assay: Z'-LYTE kinase panel
Assay type in all cases: biochemical

Experiment [1] deals with T1, PRKD1 (PKC mu) (Homo sapiens, UniProt Q15139).
T1 construct: purchased ThermoFisher (SelectScreen, Z'-LYTE)
T1 sequence (Q15139 1-912): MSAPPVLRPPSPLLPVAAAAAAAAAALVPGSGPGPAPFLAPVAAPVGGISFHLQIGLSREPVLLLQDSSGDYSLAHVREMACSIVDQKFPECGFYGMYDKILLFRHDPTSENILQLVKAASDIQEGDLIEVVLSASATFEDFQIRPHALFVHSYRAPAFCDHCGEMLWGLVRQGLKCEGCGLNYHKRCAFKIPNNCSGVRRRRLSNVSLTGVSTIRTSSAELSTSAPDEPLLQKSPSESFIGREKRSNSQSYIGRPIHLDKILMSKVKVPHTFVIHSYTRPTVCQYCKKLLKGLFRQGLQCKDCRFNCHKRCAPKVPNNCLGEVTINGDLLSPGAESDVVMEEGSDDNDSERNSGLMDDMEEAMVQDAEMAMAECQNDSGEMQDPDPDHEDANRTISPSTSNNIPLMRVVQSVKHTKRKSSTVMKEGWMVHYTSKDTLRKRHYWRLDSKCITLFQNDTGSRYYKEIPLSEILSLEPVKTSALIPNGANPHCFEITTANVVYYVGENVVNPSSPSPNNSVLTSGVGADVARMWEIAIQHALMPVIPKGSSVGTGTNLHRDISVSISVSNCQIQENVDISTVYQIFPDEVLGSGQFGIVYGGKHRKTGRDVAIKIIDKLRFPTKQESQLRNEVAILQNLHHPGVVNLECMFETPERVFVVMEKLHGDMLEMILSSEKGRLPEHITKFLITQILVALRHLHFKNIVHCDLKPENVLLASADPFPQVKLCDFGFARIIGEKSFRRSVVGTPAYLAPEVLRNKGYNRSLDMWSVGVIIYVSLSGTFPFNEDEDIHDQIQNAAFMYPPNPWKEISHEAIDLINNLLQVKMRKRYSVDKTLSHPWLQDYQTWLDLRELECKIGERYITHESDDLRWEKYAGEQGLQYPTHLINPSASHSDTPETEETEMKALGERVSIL
The essentials: (§1)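 A panel of 225 kinases is tested by Z′-LYTE under the standard protocol, with compounds at 10 µM and results given as percentage inhibition.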

The target of experiment [2] is T2, DYRK4 (Homo sapiens, UniProt Q9NR20).
T2 construct: purchased ThermoFisher (SelectScreen, Z'-LYTE)
T2 sequence (Q9NR20 1-520): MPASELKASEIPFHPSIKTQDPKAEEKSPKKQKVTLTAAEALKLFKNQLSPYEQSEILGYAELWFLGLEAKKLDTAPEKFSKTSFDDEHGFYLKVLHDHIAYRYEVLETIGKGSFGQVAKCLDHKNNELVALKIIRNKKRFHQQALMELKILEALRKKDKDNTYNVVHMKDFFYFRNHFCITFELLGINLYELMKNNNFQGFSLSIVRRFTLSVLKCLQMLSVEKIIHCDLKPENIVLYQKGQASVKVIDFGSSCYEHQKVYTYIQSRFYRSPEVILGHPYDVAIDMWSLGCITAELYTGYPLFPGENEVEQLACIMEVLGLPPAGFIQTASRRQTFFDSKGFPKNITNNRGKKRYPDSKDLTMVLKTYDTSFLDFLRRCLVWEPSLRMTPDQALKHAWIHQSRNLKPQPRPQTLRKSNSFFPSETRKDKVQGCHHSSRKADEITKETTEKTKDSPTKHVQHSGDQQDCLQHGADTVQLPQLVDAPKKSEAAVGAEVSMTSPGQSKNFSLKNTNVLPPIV
Put shortly:
as §1

In experiment [3] the target is T3, CHEK2 (CHK2) (Homo sapiens, UniProt O96017).
T3 construct: purchased ThermoFisher (SelectScreen, Z'-LYTE)
Put shortly:
as §1

Experiment [4] addresses T4, NEK2 (Homo sapiens, UniProt P51955).
T4 construct: purchased ThermoFisher (SelectScreen, Z'-LYTE)
T4 sequence (P51955 1-445): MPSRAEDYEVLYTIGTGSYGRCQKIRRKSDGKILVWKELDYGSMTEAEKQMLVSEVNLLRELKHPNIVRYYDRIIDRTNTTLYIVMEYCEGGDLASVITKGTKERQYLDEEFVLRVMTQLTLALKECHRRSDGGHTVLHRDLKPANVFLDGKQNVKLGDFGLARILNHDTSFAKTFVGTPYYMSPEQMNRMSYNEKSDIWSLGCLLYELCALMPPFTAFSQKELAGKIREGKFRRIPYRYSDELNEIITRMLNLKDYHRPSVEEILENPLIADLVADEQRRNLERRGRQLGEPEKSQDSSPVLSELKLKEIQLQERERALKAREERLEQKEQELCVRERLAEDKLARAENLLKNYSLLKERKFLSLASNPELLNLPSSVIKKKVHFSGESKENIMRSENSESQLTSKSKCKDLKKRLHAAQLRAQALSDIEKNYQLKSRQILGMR
Put shortly: as §1

Experiment [5] addresses T5, RPS6KA4 (MSK2) (Homo sapiens, UniProt O75676).
T5 construct: purchased ThermoFisher (SelectScreen, Z'-LYTE)
Put shortly:
as §1

The target in experiment [6] is T6, MELK (Homo sapiens, UniProt Q14680).
T6 construct: purchased ThermoFisher (SelectScreen, Z'-LYTE)
Put shortly: as §1

The target in experiment [7] is T7, MAP3K9 (MLK1) (Homo sapiens, UniProt P80192).
T7 construct: purchased ThermoFisher (SelectScreen, Z'-LYTE)
The essentials:
as §1

Experiment [8] deals with T8, CHEK1 (CHK1) (Homo sapiens, UniProt O14757).
T8 construct: purchased ThermoFisher (SelectScreen, Z'-LYTE)
T8 sequence (O14757 1-476): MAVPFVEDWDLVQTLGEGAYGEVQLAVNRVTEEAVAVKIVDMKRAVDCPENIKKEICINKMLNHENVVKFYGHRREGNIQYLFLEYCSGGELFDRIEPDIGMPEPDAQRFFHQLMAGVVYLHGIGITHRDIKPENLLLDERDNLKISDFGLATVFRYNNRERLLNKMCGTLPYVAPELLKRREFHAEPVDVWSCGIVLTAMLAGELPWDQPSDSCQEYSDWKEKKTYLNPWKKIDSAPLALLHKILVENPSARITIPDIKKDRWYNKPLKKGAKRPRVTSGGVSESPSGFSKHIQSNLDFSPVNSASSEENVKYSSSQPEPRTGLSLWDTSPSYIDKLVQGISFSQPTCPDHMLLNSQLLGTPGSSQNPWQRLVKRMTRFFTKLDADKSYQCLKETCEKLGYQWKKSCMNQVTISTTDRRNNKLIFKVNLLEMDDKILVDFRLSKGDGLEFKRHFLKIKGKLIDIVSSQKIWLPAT
Put shortly: as §1

For experiment [9], the target named is T9, LTK (TYK1) (Homo sapiens, UniProt P29376).
T9 construct: purchased ThermoFisher (SelectScreen, Z'-LYTE)
The essentials: as §1

Experiment [10] addresses T10, NEK4 (Homo sapiens, UniProt P51957).
T10 construct: purchased ThermoFisher (SelectScreen, Z'-LYTE)
The essentials: as §1

The target of experiment [11] is T11, CDC42 BPB (MRCKB) (Homo sapiens, UniProt Q9Y5S2).
T11 construct: purchased ThermoFisher (SelectScreen, Z'-LYTE)
The essentials: as §1

T11 sequence (Q9Y5S2 whole entry): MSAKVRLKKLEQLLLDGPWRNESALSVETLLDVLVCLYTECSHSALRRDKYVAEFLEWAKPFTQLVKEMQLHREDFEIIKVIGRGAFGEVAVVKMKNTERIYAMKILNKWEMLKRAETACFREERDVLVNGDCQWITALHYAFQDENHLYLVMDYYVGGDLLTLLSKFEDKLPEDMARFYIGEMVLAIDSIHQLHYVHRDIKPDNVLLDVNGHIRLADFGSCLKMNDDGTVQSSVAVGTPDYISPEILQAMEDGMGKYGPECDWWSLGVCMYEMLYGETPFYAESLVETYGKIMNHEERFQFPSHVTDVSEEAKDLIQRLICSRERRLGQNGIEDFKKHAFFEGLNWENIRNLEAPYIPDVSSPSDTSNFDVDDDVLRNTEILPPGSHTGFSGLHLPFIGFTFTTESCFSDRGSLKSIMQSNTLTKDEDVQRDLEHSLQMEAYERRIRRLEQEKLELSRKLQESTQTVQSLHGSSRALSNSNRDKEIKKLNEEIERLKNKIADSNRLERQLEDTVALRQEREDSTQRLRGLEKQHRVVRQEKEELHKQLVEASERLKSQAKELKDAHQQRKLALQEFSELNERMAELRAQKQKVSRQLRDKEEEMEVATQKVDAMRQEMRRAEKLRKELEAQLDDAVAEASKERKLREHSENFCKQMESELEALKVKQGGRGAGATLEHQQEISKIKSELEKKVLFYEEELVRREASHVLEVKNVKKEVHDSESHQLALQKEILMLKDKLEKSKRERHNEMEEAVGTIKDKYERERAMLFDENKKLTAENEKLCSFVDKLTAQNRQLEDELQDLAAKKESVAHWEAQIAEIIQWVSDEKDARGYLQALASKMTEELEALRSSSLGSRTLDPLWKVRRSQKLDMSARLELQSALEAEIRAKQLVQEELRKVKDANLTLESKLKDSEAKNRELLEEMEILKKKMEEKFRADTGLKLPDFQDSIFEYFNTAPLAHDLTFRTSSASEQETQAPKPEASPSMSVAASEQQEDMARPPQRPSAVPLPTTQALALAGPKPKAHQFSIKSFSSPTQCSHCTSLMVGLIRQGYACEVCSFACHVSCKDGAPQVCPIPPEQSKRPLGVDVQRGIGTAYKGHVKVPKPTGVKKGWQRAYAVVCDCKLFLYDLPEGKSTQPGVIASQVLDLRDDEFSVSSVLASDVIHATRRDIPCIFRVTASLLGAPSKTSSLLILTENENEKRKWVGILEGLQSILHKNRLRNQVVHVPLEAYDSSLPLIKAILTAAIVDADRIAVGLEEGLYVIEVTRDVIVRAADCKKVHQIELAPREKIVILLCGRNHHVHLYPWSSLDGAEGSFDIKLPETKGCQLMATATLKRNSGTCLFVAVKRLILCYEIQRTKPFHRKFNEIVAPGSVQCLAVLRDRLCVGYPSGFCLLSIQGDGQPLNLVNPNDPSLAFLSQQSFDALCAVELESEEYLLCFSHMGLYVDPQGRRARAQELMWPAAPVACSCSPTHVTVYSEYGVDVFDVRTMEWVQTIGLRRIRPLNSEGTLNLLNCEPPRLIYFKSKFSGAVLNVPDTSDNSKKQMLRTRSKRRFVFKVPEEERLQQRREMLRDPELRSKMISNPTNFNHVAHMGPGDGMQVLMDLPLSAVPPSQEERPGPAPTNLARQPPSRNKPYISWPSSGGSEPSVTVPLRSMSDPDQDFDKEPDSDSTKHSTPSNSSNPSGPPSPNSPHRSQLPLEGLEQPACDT
T5 sequence (O75676 whole entry): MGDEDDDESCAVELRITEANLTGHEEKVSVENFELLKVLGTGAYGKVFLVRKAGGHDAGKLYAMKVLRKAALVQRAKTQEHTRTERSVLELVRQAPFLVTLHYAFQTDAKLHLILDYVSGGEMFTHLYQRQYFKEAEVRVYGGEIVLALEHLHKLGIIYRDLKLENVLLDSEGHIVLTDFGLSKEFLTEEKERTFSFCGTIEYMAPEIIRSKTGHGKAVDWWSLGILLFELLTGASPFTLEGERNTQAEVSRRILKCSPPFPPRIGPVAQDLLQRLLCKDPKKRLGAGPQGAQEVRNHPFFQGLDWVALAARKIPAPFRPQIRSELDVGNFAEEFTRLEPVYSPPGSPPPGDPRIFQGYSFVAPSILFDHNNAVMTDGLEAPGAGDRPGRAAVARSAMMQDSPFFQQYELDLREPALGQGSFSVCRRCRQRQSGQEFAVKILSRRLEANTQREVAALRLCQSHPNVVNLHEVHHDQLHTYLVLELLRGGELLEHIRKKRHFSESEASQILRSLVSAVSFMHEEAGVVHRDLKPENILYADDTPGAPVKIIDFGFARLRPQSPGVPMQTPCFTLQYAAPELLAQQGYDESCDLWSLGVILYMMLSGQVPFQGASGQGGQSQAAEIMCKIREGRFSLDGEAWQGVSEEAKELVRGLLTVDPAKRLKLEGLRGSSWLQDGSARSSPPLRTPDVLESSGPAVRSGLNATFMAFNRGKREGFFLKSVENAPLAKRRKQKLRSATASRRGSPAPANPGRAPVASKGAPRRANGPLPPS
T10 sequence (P51957 whole entry): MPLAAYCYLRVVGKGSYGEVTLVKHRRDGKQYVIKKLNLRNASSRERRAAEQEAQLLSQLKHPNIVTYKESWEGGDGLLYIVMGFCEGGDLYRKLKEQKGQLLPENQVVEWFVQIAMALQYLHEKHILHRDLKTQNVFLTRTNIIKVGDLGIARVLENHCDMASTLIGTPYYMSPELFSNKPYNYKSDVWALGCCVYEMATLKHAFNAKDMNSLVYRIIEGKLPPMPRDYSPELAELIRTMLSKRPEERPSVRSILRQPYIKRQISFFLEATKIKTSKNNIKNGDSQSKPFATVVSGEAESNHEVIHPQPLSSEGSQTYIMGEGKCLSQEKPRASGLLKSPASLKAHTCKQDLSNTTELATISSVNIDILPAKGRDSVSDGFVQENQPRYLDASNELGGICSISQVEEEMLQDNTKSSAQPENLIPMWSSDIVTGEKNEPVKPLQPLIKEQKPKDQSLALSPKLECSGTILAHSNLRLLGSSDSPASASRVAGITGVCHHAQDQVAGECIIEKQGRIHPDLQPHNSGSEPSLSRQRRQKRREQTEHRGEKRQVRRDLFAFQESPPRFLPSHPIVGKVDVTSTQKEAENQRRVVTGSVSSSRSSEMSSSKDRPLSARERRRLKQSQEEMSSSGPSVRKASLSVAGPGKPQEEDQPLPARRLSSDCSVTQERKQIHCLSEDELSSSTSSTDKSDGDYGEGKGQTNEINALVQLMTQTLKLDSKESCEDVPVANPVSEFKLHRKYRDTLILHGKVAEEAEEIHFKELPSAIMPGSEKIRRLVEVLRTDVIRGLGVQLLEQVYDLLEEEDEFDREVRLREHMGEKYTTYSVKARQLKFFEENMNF
T3 sequence (O96017 whole entry): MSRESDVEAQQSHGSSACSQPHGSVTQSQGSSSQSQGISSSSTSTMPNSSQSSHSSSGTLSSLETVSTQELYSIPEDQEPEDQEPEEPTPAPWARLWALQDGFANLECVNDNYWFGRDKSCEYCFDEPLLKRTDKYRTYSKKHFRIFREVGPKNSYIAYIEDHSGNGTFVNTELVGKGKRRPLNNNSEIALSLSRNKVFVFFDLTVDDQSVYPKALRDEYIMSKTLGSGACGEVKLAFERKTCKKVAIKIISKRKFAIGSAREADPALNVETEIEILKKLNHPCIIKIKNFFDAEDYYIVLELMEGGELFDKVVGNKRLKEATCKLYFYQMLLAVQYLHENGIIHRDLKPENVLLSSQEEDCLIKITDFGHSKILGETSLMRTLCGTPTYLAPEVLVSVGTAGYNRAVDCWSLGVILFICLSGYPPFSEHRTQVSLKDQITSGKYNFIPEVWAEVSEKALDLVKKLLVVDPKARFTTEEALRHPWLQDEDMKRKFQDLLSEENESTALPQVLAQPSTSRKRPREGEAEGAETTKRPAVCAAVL
T7 sequence (P80192 whole entry): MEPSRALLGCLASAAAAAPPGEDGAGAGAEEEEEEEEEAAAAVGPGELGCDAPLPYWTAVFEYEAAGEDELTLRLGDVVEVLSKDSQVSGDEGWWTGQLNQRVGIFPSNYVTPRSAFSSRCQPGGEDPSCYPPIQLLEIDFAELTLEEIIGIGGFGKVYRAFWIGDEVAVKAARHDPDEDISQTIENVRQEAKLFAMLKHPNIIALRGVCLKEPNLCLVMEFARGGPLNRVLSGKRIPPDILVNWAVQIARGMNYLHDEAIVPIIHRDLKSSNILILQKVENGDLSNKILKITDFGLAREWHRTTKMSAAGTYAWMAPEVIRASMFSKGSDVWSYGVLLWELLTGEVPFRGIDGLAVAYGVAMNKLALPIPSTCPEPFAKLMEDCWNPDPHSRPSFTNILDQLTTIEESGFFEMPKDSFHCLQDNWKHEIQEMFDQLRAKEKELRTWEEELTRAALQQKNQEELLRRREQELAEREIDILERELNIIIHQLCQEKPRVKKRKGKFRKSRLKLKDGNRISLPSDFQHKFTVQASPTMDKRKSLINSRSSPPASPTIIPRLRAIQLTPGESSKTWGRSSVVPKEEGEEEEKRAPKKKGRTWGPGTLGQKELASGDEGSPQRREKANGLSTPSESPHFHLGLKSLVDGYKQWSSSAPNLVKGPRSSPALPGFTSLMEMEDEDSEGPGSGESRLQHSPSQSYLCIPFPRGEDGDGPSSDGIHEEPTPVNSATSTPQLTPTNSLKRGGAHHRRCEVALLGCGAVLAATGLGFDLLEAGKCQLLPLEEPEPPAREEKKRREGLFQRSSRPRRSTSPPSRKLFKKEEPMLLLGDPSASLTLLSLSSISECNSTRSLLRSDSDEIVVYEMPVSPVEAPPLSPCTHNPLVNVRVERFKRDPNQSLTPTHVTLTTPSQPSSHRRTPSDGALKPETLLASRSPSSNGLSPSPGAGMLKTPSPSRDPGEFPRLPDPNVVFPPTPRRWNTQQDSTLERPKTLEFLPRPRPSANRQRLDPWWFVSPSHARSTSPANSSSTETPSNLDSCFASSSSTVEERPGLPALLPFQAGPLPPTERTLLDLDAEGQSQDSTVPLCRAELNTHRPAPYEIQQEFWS

As usually defined, the inhibition is the change of the read-out against control, counted positive when it falls. With `Cc1ncc(-c2nc(Nc3ccc(C(=O)NCCN4CCCCC4)cc3)ncc2F)n1C(C)C` [Compound 3], the inhibition at 10 µM in [1] was 93%; in experiment [2], 23%; in [3] it was 88%; in experiment [4], -7.52%; in experiment [5] it was 89%; in [6], 100%. For the same compound, the inhibition at 10 µM in experiment [7] worked out at 92%; in [8] it was 87%; in [9] it was 73%; in experiment [10] it was 23%; in [11], 8%.
`Cc1cc(Nc2nc(N)nn2C(=O)NC(C)C)ccc1Cl` [Compound 5]: the inhibition at 10 µM in experiment [1] is 15%; in [2], 5%; in [3], 4.23%; in [4], -3%; in [5], 1.89%; in [6], 4.73%. In addition, the inhibition at 10 µM in experiment [7] is 69%; in [8] it was 14%; in [9], 18%; in experiment [10] it was 17%; in experiment [11], 5.45%.
For “XMD8-92 [Compound 2, reference compound]”, the “PRKD1 (PKC mu) % Inhibition” value in experiment [1] (10 µM compound, ATP Km app) was 17%. In experiment [2] (10 µM compound, ATP Km app), the “DYRK4 % Inhibition” value turned out to be 1.2%. Also, the “CHEK2 (CHK2) % Inhibition” value in experiment [3] (10 µM compound, ATP Km app) stood at 26%. Moreover, in experiment [4] (10 µM compound, ATP Km app), the “NEK2 % Inhibition” value is recorded as -17%. Further, the “RPS6KA4 (MSK2) % Inhibition” value in experiment [5] (10 µM compound, ATP Km app) amounted to 12%. Also, the “MELK % Inhibition” value in experiment [6] (10 µM compound, ATP Km app) was 80%. The “MAP3K9 (MLK1) % Inhibition” value in experiment [7] (10 µM compound, ATP Km app) turned out to be 8.53%. The “CHEK1 (CHK1) % Inhibition” value in [8] (10 µM compound, ATP Km app) is given as 8%. For the same compound, the “LTK (TYK1) % Inhibition” value in experiment [9] (10 µM compound, ATP Km app) was found to be 24%. The “NEK4 % Inhibition” value in [10] (10 µM compound, ATP Km app) is given as 2.63%. Moreover, in experiment [11] (10 µM compound, ATP Km app), the “CDC42 BPB (MRCKB) % Inhibition” value is -11%.
